Test results taken from paper PMC8157322, “Gd(III)–Pt(IV) theranostic contrast agents for tandem MR imaging and chemotherapy” (Chemical Science, 2020).

Experiments:
[1] = tested on: porcine liver esterase (PLE); assay: Stability in porcine liver esterase in PBS (HPLC-MS); assay type: in vitro ADME; conditions: PBS with 10 units/mL porcine liver esterase, 37 °C
Description: To ensure both agents remain stable in aqueous media under various conditions, they were dissolved in PBS, two types of cell culture media (MEM and RPMI-1640), pH 5 H2O, and porcine live esterase (PLE) in PBS and monitored over time by HPLC-MS. […]
Stability of GP1 and GP2 in various aqueous media. Aliquots of GP1 and GP2 were prepared from a stock with known mass checked by ICP-MS. An aliquot of each was dissolved in H2O and analyzed by HPLC-MS using an Atlantis C18 column (4.6 × 250 mm, 5 μm) and the following method: MeCN held at 0% for 3 min followed by a 15 min ramp to 100% MeCN (GP1 retention time: 10.9 min, GP2 retention time: 11.6 min). Aliquots of both were additionally dissolved in PBS, MEM, RPMI-1640, pH 5 H2O, PBS with 10 units/mL porcine liver esterase, 5 mM glutathione, and 5 mM sodium ascorbate, incubated in a shaker at 37 °C, and were analyzed by HPLC-MS at different time points using the same method. At each time point, the area of the peak of GP1 or GP2 was determined by integration and compared to the area of the peaks in […]

A2780 cells = assay: MR imaging of cell pellets at 7 T; assay type: cell-based; conditions: A2780, 7 T, 6 h incubation; cisplatin 7.5 μM, 1 100 μM, GP1 30 μM, GP2 60 μM
[2] = Relaxivity after incubation in 5 mM GSH in PBS; assay type: physicochemical; conditions: 1.41 T, PBS with 5 mM glutathione, 37 °C
Description: This is possibly due to an increase in the rotational correlation time (τR) or a change in the inner sphere hydration number (q) of Gd(III). The differences in relaxivity of GP1 and GP2 compared to 1 offers the possibility of monitoring reduction of the agents by MR at both high and low field strength. To test this, GP1, GP2, and 1 were incubated in 5 mM GSH in PBS and the relaxivity was measured (see ESI ^†). The relaxivity of each converged to the same value (r1 of 4.4, 4.5, and 4.6 mM^−1 s^−1 for 1, GP1, and GP2 respectively), indicating the same Gd(III) species was formed after reduction. The significant change in r1 upon reduction of GP1 and GP2 theoretically could be used to monitor intracellular reduction by MR. However, further testing needs to be done to determine if these agents are suitable for this application.
Fig. S2 Graph of r1 of (A) GP1 measured at 1.41 T (B) GP1 measured at 7 T (C) GP2 measured at 1.41 T
(D) GP2 measured at 7 T (E) 1 measured at 1.41 T (F) 1 measured at 7 T. All measurements were taken
in PBS at 37 °C (G) 1 measured at 1.41 T with 5 mM GSH (H) GP1 measured at 1.41 T with 5 mM GSH
and (I) GP2 measured at 1.41 T with 5 mM GSH.
Table S1. r1 of GP1, GP2, and 1 in PBS with 5 mM glutathione at 37 °C
GP1 (5 mM GSH) GP2 (5 mM GSH) 1 (5 mM GSH)

[3] = Reduction by 5 mM GSH / 5 mM ascorbate at 37 °C (HPLC-MS); assay type: physicochemical
Description: Under reducing conditions both agents rapidly converted to a monomeric Gd(III) complex and a Pt(II) drug. Each agent was incubated with 5 mM GSH and 5 mM ascorbate at 37 °C to mimic intracellular conditions. […] This is not surprising, as ascorbate is a weaker reducing agent. […]
solution. These capillaries were imaged using a Bruker PharmaScan 7 T MR imaging spectrometer (Bruker BioSpin, Billerica, MA, USA). T1 relaxation times were measured using a rapid-acquisition rapid-echo (RARE-VTR) T1-map pulse sequence with static TE (10 ms) and […]
Stability of GP1 and GP2 in various aqueous media. […] An aliquot of each was dissolved in H2O and analyzed by HPLC-MS using an Atlantis C18 column (4.6 × 250 mm, 5 μm) and the following method: MeCN held at 0% for 3 min followed by a 15 min ramp to 100% MeCN (GP1 retention time: 10.9 min, GP2 retention time: 11.6 min). Aliquots of both were additionally dissolved in PBS, MEM, RPMI-1640, pH 5 H2O, PBS with 10 units/mL porcine liver esterase, 5 mM glutathione, and 5 mM sodium ascorbate, incubated in a shaker at 37 °C, and were analyzed by HPLC-MS at different time points using the same method. At each time point, the area of the peak of GP1 or GP2 was determined by integration and compared to the area of the peaks in H2O. […]

- Decrease in stability in presence of PLE [1]: ~10%
- r1 with 5 mM GSH [2]: 4.5 mM⁻¹ s⁻¹
- Reduction by GSH ([3]; 5 mM GSH, in less than an hour): ≥ 94%
SMILES: [NH2][Pt]([NH2])([OH])([Cl])([Cl])[O]C(=O)CCCCCN1CCN2CCN3CCN(CC1)CC(=O)[O][Gd]([O]C(=O)C2)[O]C(=O)C3 [GP1]
- T1 of cell pellet (A2780 cells): 1708 ± 27 ms
- Δ R1 (increase in R1 vs untreated control) (A2780 cells): 36%
- Reduction by ascorbate ([3]; 5 mM ascorbate, compared to GSH): reduced by ascorbate, albeit it at a much slower rate
